Measurements as given in patent US9637738B2, “Methods and agents to increase therapeutic dystrophin expression in muscle” (Reveragen Biopharma, Inc., priority 2013, dated 2017).
“Also recorded” adds a separate entry of the source.

Experiments:
[1] = test system: human dystrophin 3′UTR; experiment: Dys 3′UTR luciferase reporter assay in C2C12 myoblasts co-transfected with microRNA mimics; type: cell-based, mouse; conditions: C2C12 myoblasts co-transfected with 200 ng Dys 3′UTR reporter and 50 nM microRNA mimic, Renilla luciferase normalized to internal control
[2] = test system: dystrophin protein; experiment: Systemic delivery of PMO to mdx23 mice, dystrophin rescue by SILAM mass spectrometry and immunoblot; type: in vivo, mouse; conditions: single 800 mg/kg intravenous injection, 1 month post-injection, SILAM mass spectrometry
Description: FIG. 7—Dystrophin-regulating microRNAs levels promote observed variability of dystrophin protein production in PMO-treated mdx mice. (a) Dystrophin levels were analyzed via mass spec and miRNA levels were assessed in the diaphragm, TA and Gastroc. […] All statistical analyses were performed in Prism Graph Pad 5.0, One-Way ANOVA with Bonferroni post-test (*p<0.05; **p<0.01; ***p<0.001). (b) The tricep, TA and gastroc in 3 PMO-treated mice were chosen for analysis. Dystrophin levels were analyzed via mass spec and microRNA levels were analyzed via qPCR. For analysis, Each miRNA's values were grouped by muscle, mean and SD were calculated. The deviation from the appropriate mean was calculated for each individual miRNA value. These deviations were assigned a score of low, mid or high, defined by the following rule: those falling within 0.5 SD of the mean were assigned a “mid” score, those greater than 0.5 SD of the mean were assigned a “high score”, and those less than 0.5 SD of the mean were assigned a “low” score. Mean % dystrophin levels were then compared using an independent t-test. […]
We tested whether variable levels of dystrophin-regulating microRNAs in muscle […] of dystrophin rescue by exon skipping. […] From one mouse, adjacent cryosections of the tibialis anterior (TA), gastrocnemius, and diaphragm muscles were analyzed for dystrophin protein content by SILAM mass spectrometry (Brown et al. 2013) and immunoblotting, and for dystrophin-regulating microRNA content by TaqMan (real time PCR) assays (FIG. 7a).

[3] = test system: miR-223; experiment: qRT-PCR of miR-223 in gastrocnemius of drug-treated mdx23 mice; type: in vivo, mouse; conditions: 5 mg/kg prednisolone or 15 mg/kg VBP-15
Description: (§1) FIG. 8—Treatment with anti-inflammatories modulates dystrophin-targeting microRNAs. (a) VBP15 and prednisolone reduces dystrophin-targeting microRNA levels; miR-146a, miR-146b and miR-223 levels in the gastrocnemius of wild-type mice and vehicle, prednisolone, or […] mdx23 mice were assessed via qPCR; results were normalized to wild-type levels. […] All statistical analyses were performed in Prism Graph Pad 5.0, One-Way ANOVA with Bonferroni post-test (*p<0.05; **p<0.01).
(§2) 20 mg frozen muscle was homogenized in TriZol reagent (Invitrogen), followed by RNA extraction. microRNAs were quantified with 7900HT Fast Real-Time PCR system using mouse-specific TaqMan microRNA assays with U6 snRNA as a control. Results were calculated as above using the 2(−ΔΔC(T)) method (Schmittgen, 2001).
(§3) Mdx23 (C57BL/10ScSn-Dmd/J) mice (The Jackson laboratories) were dosed with 5 mg/kg prednisolone or 15 mg/kg […] as previously reported (Heier et al, 2013).
(§4) Exon skipping therapies in DMD will likely be used in combination with either current glucocorticoid standards of care, or next-generation steroid derivatives moving towards clinical use (Heier et al 2012). Because these drugs affect transcriptional regulation and/or inflammatory miRNA signaling, we tested what their effects on levels of dystrophin-regulating miRNAs might be.

[4] = test system: miR-146a; experiment: qRT-PCR of miR-146a in gastrocnemius of drug-treated mdx23 mice; type: in vivo, mouse; conditions: 5 mg/kg prednisolone or 15 mg/kg VBP-15, p<0.01
Description: as §1, §2, §3, §4

[5] = test system: miR-146b; experiment: qRT-PCR of miR-146b in gastrocnemius of drug-treated mdx23 mice; type: in vivo, mouse; conditions: 5 mg/kg prednisolone or 15 mg/kg VBP-15
Description: as §1, §2, §3, §4

[6] = test system: miR-320a; experiment: qRT-PCR of miR-320a in gastrocnemius of drug-treated mdx23 mice; type: in vivo, mouse; conditions: 5 mg/kg prednisolone or 15 mg/kg VBP-15, p=0.22 for prednisone
Description: as §1, §2, §3, §4

[7] = test system: miR-382; experiment: qRT-PCR of miR-382 in gastrocnemius of drug-treated mdx23 mice; type: in vivo, mouse; conditions: 5 mg/kg prednisolone or 15 mg/kg VBP-15, p<0.05 for prednisone
Description: as §1, §2, §3, §4

miR-223: microRNA mimic; hsa-miR-223 3′-ACCCCAUAAACUGUUUGACUGU-5′ (SEQ ID NO: 5) (listed as RNA, chemistry not given here; listed 3' to 5'; listed as Homo sapiens)
luciferase protein expression from Dys 3′UTR reporter [1]: significantly inhibited

miR-320a: microRNA mimic; hsa-miR-320a 3′-AGCGGGAGAGUUGGGUCGAAAA-5′ (SEQ ID NO: 7) (listed as RNA, chemistry not given here; listed 3' to 5'; listed as Homo sapiens)
luciferase protein expression from Dys 3′UTR reporter [1]: significantly inhibited

miR-146a: microRNA mimic; hsa-miR-146a 3′-UUGGGUACCUUAAGUCAAGAGU-5′ (SEQ ID NO: 1) (listed as RNA, chemistry not given here; listed 3' to 5'; listed as Homo sapiens)
luciferase protein expression from Dys 3′UTR reporter [1]: significantly inhibited

exon 23-targeting morpholino: PMO (Gene Tools): 5′-GGCCAAACCTCGGCTTACCTGAAAT-3′ (SEQ ID NO:33) (all phosphorodiamidate morpholino (PMO); listed as Mus musculus)
dystrophin rescue in diaphragm [2]: 5 % wild-type levels | dystrophin rescue in gastrocnemius [2]: 5 % wild-type levels | dystrophin rescue in tibialis anterior (TA) [2]: 40 % wild-type levels

miR-382: microRNA mimic; hsa-miR-382 3′-GCUUAGGUGGUGCUUGUUGAAG-5′ (SEQ ID NO: 14) (listed as RNA, chemistry not given here; listed 3' to 5'; listed as Homo sapiens)
luciferase protein expression from Dys 3′UTR reporter [1]: significantly inhibited

miR-374a: microRNA mimic; hsa-miR-374a 3′-GUGAAUAGUCCAACAUAAUAUU-5′ (SEQ ID NO: 9) (listed as RNA, chemistry not given here; listed 3' to 5'; listed as Homo sapiens)
luciferase protein expression from Dys 3′UTR reporter [1]: significantly inhibited; also recorded: most potent downregulation; also recorded: strong inhibition

miR-146b-5p: microRNA mimic; hsa-miR-146b-5p 3′-UCGGAUACCUUAAGUCAAGAGU-5′ (SEQ ID NO: 3) (listed as RNA, chemistry not given here; listed 3' to 5'; listed as Homo sapiens)
luciferase protein expression from Dys 3′UTR reporter [1]: significantly inhibited | luciferase protein expression from Dys 3′UTR reporter ([1]; listed as miR-146b): most potent downregulation; also recorded: strong inhibition

C[C@@H]1CC2C3CCC4=CC(=O)C=C[C@]4(C)C3=CC[C@]2(C)[C@@]1(O)C(=O)CO (stereo partly drawn) [VBP-15, (10S,13S,16R,17R)-17-hydroxy-17-(2-hydroxyacetyl)-10,13,16-trimethyl-6,7,8,10,12,13,14,15,16,17-decahydro-3H-cyclopenta[a]phenanthren-3-one]
miR-223 levels over untreated mice [3]: trend of decreases | miR-146a levels over untreated mice [4]: significantly reduced | miR-146b levels over untreated mice [5]: trend of decreases

C[C@]12C=CC(=O)C=C1CC[C@@H]1[C@@H]2[C@@H](O)C[C@@]2(C)[C@H]1CC[C@]2(O)C(=O)CO [prednisone, prednisolone]
miR-223 levels over untreated mice [3]: trend of decreases | miR-320a levels, increase in treated mice [6]: increased | miR-382 levels, increase in treated mice [7]: increased | miR-146a levels over untreated mice [4]: significantly reduced | miR-146b levels over untreated mice [5]: trend of decreases
